# Tested on: NCI-H522
# Assay: NCI growth inhibition and cytotoxicity screen, Lung Cancer panel
# Assay type: cell-based
# Conditions: Homo sapiens, NCI-H522; Table 1; cell line NCIH522 (Lung Cancer)
row,SMILES,GI50 [µM]
1,COc1cc(OC)cc(/C(C#N)=C/c2c[nH]c3ccccc23)c1 [Formula (I)(b)],0.0271

# Same assay, conditions: Homo sapiens, NCI-H522; Table 1; cell line NCIH522 (Lung Cancer); read-out: LC50 (the source's name)
row,SMILES,CC50 [µM]
1,COc1cc(OC)cc(/C(C#N)=C/c2c[nH]c3ccccc23)c1 [Formula (I)(b)],> 100

# Tested on: SF-295
# Assay: NCI growth inhibition and cytotoxicity screen, CNS Cancer panel
# Assay type: cell-based
# Conditions: Homo sapiens, SF-295; Table 1; cell line SF-2395 (CNS Cancer)
row,SMILES,GI50 [µM]
1,COc1cc(OC)cc(/C(C#N)=C/c2c[nH]c3ccccc23)c1 [Formula (I)(b)],0.0453

# Same assay, conditions: Homo sapiens, SF-295; Table 1; cell line SF-2395 (CNS Cancer); read-out: LC50 (the source's name)
row,SMILES,CC50 [µM]
1,COc1cc(OC)cc(/C(C#N)=C/c2c[nH]c3ccccc23)c1 [Formula (I)(b)],> 100

# Tested on: MOLT-4
# Assay: NCI growth inhibition and cytotoxicity screen, Leukemia panel
# Conditions: Homo sapiens, MOLT-4
row,SMILES,GI50 [µM]
1,COc1cc(OC)cc(/C(C#N)=C/c2c[nH]c3ccccc23)c1 [Formula (I)(b)],0.0491

# Same assay, conditions: Homo sapiens, MOLT-4, read-out: LC50
row,SMILES,CC50 [µM]
1,COc1cc(OC)cc(/C(C#N)=C/c2c[nH]c3ccccc23)c1 [Formula (I)(b)],> 100

# Tested on: RPMI-8226
# Assay: as above
# Conditions: Homo sapiens, RPMI-8226
row,SMILES,GI50 [µM]
1,COc1cc(OC)cc(/C(C#N)=C/c2c[nH]c3ccccc23)c1 [Formula (I)(b)],0.0655

# Same assay, conditions: Homo sapiens, RPMI-8226, read-out: LC50
row,SMILES,CC50 [µM]
1,COc1cc(OC)cc(/C(C#N)=C/c2c[nH]c3ccccc23)c1 [Formula (I)(b)],> 100

# Tested on: SR
# Assay: as above
# Conditions: Homo sapiens
row,SMILES,GI50 [µM]
1,COc1cc(OC)cc(/C(C#N)=C/c2c[nH]c3ccccc23)c1 [Formula (I)(b)],0.0334

# Same assay, conditions: Homo sapiens, read-out: LC50
row,SMILES,CC50 [µM]
1,COc1cc(OC)cc(/C(C#N)=C/c2c[nH]c3ccccc23)c1 [Formula (I)(b)],> 100

# Tested on: LOX-IMVI
# Assay: NCI growth inhibition and cytotoxicity screen, Melanoma panel
# Conditions: Homo sapiens
row,SMILES,GI50 [µM]
1,COc1cc(OC)cc(/C(C#N)=C/c2c[nH]c3ccccc23)c1 [Formula (I)(b)],0.0784

# Same assay, conditions: Homo sapiens, read-out: LC50
row,SMILES,CC50 [µM]
1,COc1cc(OC)cc(/C(C#N)=C/c2c[nH]c3ccccc23)c1 [Formula (I)(b)],> 100

# Tested on: M14
# Assay: as above
# Conditions: Homo sapiens, M14
row,SMILES,GI50 [µM]
1,COc1cc(OC)cc(/C(C#N)=C/c2c[nH]c3ccccc23)c1 [Formula (I)(b)],0.0424

# Same assay, conditions: Homo sapiens, M14, read-out: LC50
row,SMILES,CC50 [µM]
1,COc1cc(OC)cc(/C(C#N)=C/c2c[nH]c3ccccc23)c1 [Formula (I)(b)],> 100

# Tested on: UACC-257
# Assay: as above
# Conditions: Homo sapiens, UACC-257
row,SMILES,GI50 [µM]
1,COc1cc(OC)cc(/C(C#N)=C/c2c[nH]c3ccccc23)c1 [Formula (I)(b)],0.0487

# Same assay, conditions: Homo sapiens, UACC-257, read-out: LC50
row,SMILES,CC50 [µM]
1,COc1cc(OC)cc(/C(C#N)=C/c2c[nH]c3ccccc23)c1 [Formula (I)(b)],> 100

# Tested on: UACC-62
# Assay: as above
# Conditions: Homo sapiens, UACC-62
row,SMILES,GI50 [µM]
1,COc1cc(OC)cc(/C(C#N)=C/c2c[nH]c3ccccc23)c1 [Formula (I)(b)],0.0493

# Same assay, conditions: Homo sapiens, UACC-62, read-out: LC50
row,SMILES,CC50 [µM]
1,COc1cc(OC)cc(/C(C#N)=C/c2c[nH]c3ccccc23)c1 [Formula (I)(b)],> 100

# Tested on: SNB-19
# Assay: NCI growth inhibition and cytotoxicity screen, CNS Cancer panel
# Conditions: Homo sapiens, SNB-19
row,SMILES,GI50 [µM]
1,COc1cc(OC)cc(/C(C#N)=C/c2c[nH]c3ccccc23)c1 [Formula (I)(b)],0.0621

# Same assay, conditions: Homo sapiens, SNB-19, read-out: LC50
row,SMILES,CC50 [µM]
1,COc1cc(OC)cc(/C(C#N)=C/c2c[nH]c3ccccc23)c1 [Formula (I)(b)],> 100

# Tested on: SNB-75
# Assay: as above
# Conditions: Homo sapiens, SNB-75
row,SMILES,GI50 [µM]
1,COc1cc(OC)cc(/C(C#N)=C/c2c[nH]c3ccccc23)c1 [Formula (I)(b)],0.0348

# Same assay, conditions: Homo sapiens, SNB-75, read-out: LC50
row,SMILES,CC50 [µM]
1,COc1cc(OC)cc(/C(C#N)=C/c2c[nH]c3ccccc23)c1 [Formula (I)(b)],> 100

# Tested on: U251
# Assay: as above
# Conditions: Homo sapiens, U-251
row,SMILES,GI50 [µM]
1,COc1cc(OC)cc(/C(C#N)=C/c2c[nH]c3ccccc23)c1 [Formula (I)(b)],0.0454

# Same assay, conditions: Homo sapiens, U-251, read-out: LC50
row,SMILES,CC50 [µM]
1,COc1cc(OC)cc(/C(C#N)=C/c2c[nH]c3ccccc23)c1 [Formula (I)(b)],> 100

# Tested on: NCI-H226
# Assay: NCI growth inhibition and cytotoxicity screen, Lung Cancer panel
# Conditions: Homo sapiens, NCI-H226
row,SMILES,GI50 [µM]
1,COc1cc(OC)cc(/C(C#N)=C/c2c[nH]c3ccccc23)c1 [Formula (I)(b)],> 0.1

# Same assay, conditions: Homo sapiens, NCI-H226, read-out: LC50
row,SMILES,CC50 [µM]
1,COc1cc(OC)cc(/C(C#N)=C/c2c[nH]c3ccccc23)c1 [Formula (I)(b)],> 100

# Tested on: NCI-H23
# Assay: as above
# Conditions: Homo sapiens, NCI-H23
row,SMILES,GI50 [µM]
1,COc1cc(OC)cc(/C(C#N)=C/c2c[nH]c3ccccc23)c1 [Formula (I)(b)],> 0.1

# Reference: patent publication US9884842B2, “Combretastatin analogs” (The Board of Trustees of the University of Arkansas, priority 2013, dated 2018)
